Conditions: 101.35 kPa, Liquid; for viscosity: Falling or rolling sphere viscometry; for mass density: Vibrating tube method

CCO [ethanol]
Conditions | mass density [kg/m3] | viscosity [mPa·s]
293.15 K | 789.5 | 1.194
298.15 K | 785.2 | 1.085
303.15 K | 780.8 | 0.9897
308.15 K | 776.5 | 0.9036
313.15 K | 772.1 | 0.8277
318.15 K | 767.7 | 0.759
323.15 K | 763.2 | 0.6978
328.15 K | 758.7 | 0.6434
333.15 K | 754.1 | 0.5942
